Test results: ChEMBL document CHEMBL1201862, “PubChem BioAssay data set” (2004)
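Cultured in 96-well plates, cells were exposed to test compound for 48 hours across five concentrations. GI50: concentration for 50% inhibition of growth.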 Active and inactive are the calls of the source. Cut-off read from the data, not from the text of the source: active = GI50 up to about 1.1 µM and inactive = higher.

How the values were obtained:
Assay in all cases: NCI anticancer screen, dose series, 48 h
IGROV-1 = test system: IGROV-1
CAKI-1 = test system: CAKI-1
RXF 393 = test system: RXF 393
NCI-H522 = test system: NCI-H522
LOX IMVI = test system: LOX IMVI
SK-MEL-28 = test system: SK-MEL-28
K562 = test system: K562
MCF7 = test system: MCF7
SF-268 = test system: SF-268
SNB-75 = test system: SNB-75
A549 = test system: A549
EKVX = test system: EKVX
HOP-92 = test system: HOP-92
NCI-H226 = test system: NCI-H226
UO-31 = test system: UO-31
786-0 = test system: 786-0
CCRF-CEM = test system: CCRF-CEM
NCI/ADR-RES = test system: NCI/ADR-RES
OVCAR-3 = test system: OVCAR-3
BT-549 = test system: BT-549

Row | SMILES | GI50 (IGROV-1) | GI50 (CAKI-1) | GI50 (RXF 393) | GI50 (NCI-H522) | GI50 (LOX IMVI) | GI50 (SK-MEL-28) | GI50 (K562) | GI50 (MCF7) | GI50 (SF-268) | GI50 (SNB-75) | GI50 (A549) | GI50 (EKVX) | GI50 (HOP-92) | GI50 (NCI-H226) | GI50 (UO-31) | GI50 (786-0) | GI50 (CCRF-CEM) | GI50 (NCI/ADR-RES) | GI50 (OVCAR-3) | GI50 (BT-549)
1 | CC(C)OC(=O)Nc1c([N+](=O)[O-])cc(C(F)(F)F)cc1[N+](=O)[O-] | > 66.7 µM (inactive) | > 100 µM (inactive) | 20.1 µM (inactive) | > 95.7 µM (inactive) | > 100 µM (inactive) | > 100 µM (inactive) | > 46.5 µM (inactive) | > 100 µM (inactive) | 39.4 µM (inactive) | 5.38 µM (inactive) | > 100 µM (inactive) | > 100 µM (inactive) | 33 µM (inactive) | > 89.1 µM (inactive) | > 90.2 µM (inactive) | 15.9 µM (inactive) | > 100 µM (inactive) | > 100 µM (inactive) | > 100 µM (inactive) | > 100 µM (inactive)
2 | O=C(O)C[S+]([O-])c1ccc2c3c(cccc13)C(=O)c1ccccc1-2 (stereo not given) | > 100 µM (inactive) | > 100 µM (inactive) | > 100 µM (inactive) | > 100 µM (inactive) | > 100 µM (inactive) | > 100 µM (inactive) | > 100 µM (inactive) | > 100 µM (inactive) | > 100 µM (inactive) | > 100 µM (inactive) | > 100 µM (inactive) | 55.1 µM (inactive) | > 100 µM (inactive) | > 100 µM (inactive) | > 100 µM (inactive) | > 100 µM (inactive) | > 100 µM (inactive) | > 100 µM (inactive) | > 100 µM (inactive) | > 100 µM (inactive)
3 | N#Cc1ncc(C(Cl)Cl)nc1Cl | 2.09 µM (inactive) | 1.4 µM (inactive) | 1.75 µM (inactive) | 0.502 µM (active) | 1.44 µM (inactive) | 1.89 µM (inactive) | 1.33 µM (inactive) | 1.94 µM (inactive) | 2.43 µM (inactive) | 2.29 µM (inactive) | 3.24 µM (inactive) | 1.75 µM (inactive) | 0.00769 µM (active) | 9.27 µM (inactive) | 1.78 µM (inactive) | 1.76 µM (inactive) | 0.491 µM (active) | 2.14 µM (inactive) | 2.12 µM (inactive) | 1.84 µM (inactive)
4 | COC(=O)[C@H](Cc1ccccc1)NC(=O)[C@H](Cc1ccccc1)NC(=O)[C@@H]1CCCN1C(=O)N[C@H]1C2C=CC(C2)C1C(=O)N1CCC[C@H]1C(=O)N[C@@H](C)C(=O)N[C@H](C(=O)OC)C(C)C (stereo not given in full) | 38 µM (inactive) | > 100 µM (inactive) | > 100 µM (inactive) | 56.5 µM (inactive) | 41.3 µM (inactive) | > 100 µM (inactive) | 33.9 µM (inactive) | 56.9 µM (inactive) | 94.2 µM (inactive) | > 100 µM (inactive) | > 100 µM (inactive) | > 100 µM (inactive) | 73.1 µM (inactive) | > 100 µM (inactive) | > 100 µM (inactive) | > 100 µM (inactive) | 22.5 µM (inactive) | > 100 µM (inactive) | > 100 µM (inactive) | 40.9 µM (inactive)
5 | C=C(Cl)/C(=C\Cl)CCC(Br)C(C)C (stereo not given) | > 100 µM (inactive) | > 100 µM (inactive) | 77.3 µM (inactive) | 21.1 µM (inactive) | 15.8 µM (inactive) | 78.5 µM (inactive) | 36.2 µM (inactive) | 48.9 µM (inactive) | > 100 µM (inactive) | > 100 µM (inactive) | > 100 µM (inactive) | > 100 µM (inactive) | > 100 µM (inactive) | > 100 µM (inactive) | 78.2 µM (inactive) | 60.1 µM (inactive) | 44.5 µM (inactive) | > 100 µM (inactive) | > 100 µM (inactive) | > 100 µM (inactive)
